In BigSolDB 2.1:

O=[N+]([O-])c1cccc2cccc([N+](=O)[O-])c12
solubility (mole fraction)
Conditions	in acetone	in acetonitrile	in chloroform	in ethanol	in ethyl acetate	in isopropanol	in methanol	in n-butanol	in toluene
273.15 K	0.0103	0.00295	0.00311	0.000242	0.00414	8.97e-05	0.000293	0.000155	0.00119
275.65 K	0.0113	0.00331	0.0035	0.000267	0.00446	0.000103	0.000327	0.000178	0.00125
278.15 K	0.0119	0.0039	0.00382	0.000294	0.00471	0.000126	0.000356	0.00021	0.00138
280.65 K	0.013	0.00465	0.0042	0.000323	0.00522	0.000146	0.000398	0.000237	0.00157
283.15 K	0.014	0.00528	0.00473	0.000351	0.00551	0.000173	0.000429	0.000272	0.00171
285.65 K	0.0152	0.00597	0.00508	0.000385	0.00607	0.000198	0.000485	0.000314	0.00188
288.15 K	0.0163	0.00661	0.00561	0.000427	0.00659	0.000224	0.000536	0.000356	0.00205
291.15 K	0.0177	0.00761	0.00601	0.000484	0.0072	0.000265	0.000599	0.000411	0.00235
293.15 K	0.0189	0.00821	–	0.000529	0.00765	0.000296	0.000641	0.000449	0.00255
295.65 K	0.0205	0.00921	0.00732	0.000584	0.00822	0.000334	0.000696	0.000504	0.0028
298.15 K	0.0223	0.0102	0.00787	0.000646	–	0.000382	0.000758	–	0.00309
300.65 K	0.0243	0.0112	0.0084	0.00071	0.00947	0.00043	0.000821	0.000623	0.00344
303.15 K	0.0261	0.012	0.00923	0.000789	0.0102	0.000482	0.000891	0.00069	0.00382
305.65 K	0.028	0.013	0.00983	0.000878	0.011	0.000536	0.000971	0.000759	0.00427
308.15 K	0.0306	0.014	0.0107	0.000994	0.0119	0.000605	0.00106	0.000832	0.00468
